One experiment concerns b(h)CAII. Nature of the experiment: Dot blot selectivity/sensitivity assay in porcine serum. The class given is binding. Particulars: 0.1% serum. The procedure: Dot blots are a common method for detecting proteins. […] For a dot blot, the solution containing the protein of interest is simply dotted onto an absorbent membrane material (typically nitrocellulose). The capture agent (typically an antibody) is labeled with biotin molecule, and applied to the same spot. The spot is rinsed, and then horseradish peroxidase (HRP)-labeled streptavidin is added, binding to the biotin that is bound to the protein. Optical methods are typically utilized to detect this binding. For these tests, Biotin-PEG-NovaTag resin (0.48 mmol/g; Novabiochem) was utilized for bulk synthesis of C-terminal biotin-labeled multi-ligands. After resin cleavage, the crude biotinylated multi-ligand was precipitated with ether and then purified to >98% by C18 reversed phase HPLC. For a dot blot assay, the procedure was as follows: b(h)CAII antigens were prepared as 1 mg/mL stocks in PBS (pH 7.4). A dilution series of antigen was applied to a nitrocellulose membrane, typically ranging from 2 μg to 0.5 ng per spot. […] The membrane was then washed with TBS. […] After washing with TBS for 1 h, 1:3000 Streptavidin-HRP (Abcam, Cambridge, Mass.) prepared in 0.5% milk/TBS was added to the membrane and incubated for 1 h. […]

The target in the next experiment is T1, bCAII (Bos taurus, UniProt P00921).
T1 construct: The bCAII (C2522), from bovine erythrocytes, lyophilized powder; purchased Sigma-Aldrich C2522; host or cells: bovine erythrocytes
T1 sequence (P00921 whole entry): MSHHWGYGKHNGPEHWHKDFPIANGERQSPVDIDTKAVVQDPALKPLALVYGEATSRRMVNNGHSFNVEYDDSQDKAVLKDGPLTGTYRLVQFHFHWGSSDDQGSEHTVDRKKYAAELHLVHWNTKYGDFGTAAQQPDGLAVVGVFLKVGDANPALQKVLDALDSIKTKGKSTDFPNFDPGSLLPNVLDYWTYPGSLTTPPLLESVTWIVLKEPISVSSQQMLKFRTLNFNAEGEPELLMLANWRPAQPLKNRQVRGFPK
The experiment can be described thus: KD determination by surface plasmon resonance (SPR), immobilized bCAII. The arrangement: species or system bovine. The note with it: binding affinity to bCAII by SPR, 1:1 binding fit. An excerpt:
KD determination by surface plasmon resonance (SPR).
(In general: Surface plasmon resonance follows binding to a sensor surface in real time, without labels.)

A further experiment deals with hCAII (Homo sapiens, UniProt P00918). The experiment can be described thus: biochemical.

Where “and” joins values, the source holds several entries; their conditions need not be identical. Equal values may be shown once. Some results are limits rather than exact numbers.

The Kd is the free concentration of one partner at which half of the binding sites on the other are occupied at equilibrium, for simple one-to-one binding.

Protocol for hCAII: KD determination by surface plasmon resonance (SPR). […] One flow cell of the biosensor surface (BIACORE CM5) was immobilized with bCAII following standard procedures using 0.25 mg/mL bCAII prepared in 10 mM sodium acetate (pH 5.0) buffer and a 1:1 solution of 0.1 mM NHS and 0.4 mM EDC (Papalia, G. A. et al., 2006). Similarly, a second flow cell was immobilized with hCAII following standard procedures using 0.25 mg/mL hCAII prepared in 10 mM sodium acetate (pH 5.5) buffer (Svedhem, S. et al., 2001). Immobilization levels of ˜4000 RU were achieved using a flow rate of 100 μL/min over 420 s. The remaining two flow cells were left underivatized, to correct for changes in bulk refractive index and to assess nonspecific binding. The running buffer was prepared to contain 10 mM HEPES+150 mM NaCl+0.05% Tween20+3% DMSO, and this buffer was used for all experiments. Prior to the peptide analyte experiment, 8 buffer-alone cycles were completed to establish baseline stabilization. Biligand samples were injected in a concentration series (5 μM to 2 nM) at 100 μL/min flow rate for 120-180 s across the four flow cells. Following background subtraction, the analyte response data was fitted for 1:1 binding affinity using the BiaEvaluation software. […]

Consider (D-Pra)-kwlwGl-Tz1-kfwlkl, for which the “reduction of dot blot sensitivity relative to triligand” value in the experiment with b(h)CAII is reported as > 10 fold. Turning to `CC[C@@H](C)[C@@H](NC(=O)[C@@H](CC(C)C)NC(=O)[C@@H](CC(N)=O)NC(=O)C(N)CCCCn1cc(C[C@@H](NC(C)=O)C(=O)N[C@H](CCCCN)C(=O)N[C@H](Cc2c[nH]c3ccccc23)C(=O)N[C@H](CC(C)C)C(=O)N[C@H](Cc2c[nH]c3ccccc23)C(=O)NCC(=O)N[C@H](CC(C)C)C(=O)N[C@H](Cc2cn(CCCCC(NC(C)=O)C(=O)N[C@H](CCCCN)C(=O)N[C@H](Cc3ccccc3)C(=O)N[C@H](Cc3c[nH]c4ccccc34)C(=O)N[C@H](CC(C)C)C(=O)N[C@H](CCCCN)C(=O)N[C@H](CC(C)C)C(=O)O)nn2)C(=O)N2CCCCC2)nn1)C(=O)N[C@@H](C(=O)N[C@H](Cc1ccccc1)C(=O)N[C@H](CCCNC(=N)N)C(N)=O)C(C)C` (stereo partly drawn) [rfviln-Tz2-kwlwGl-Tz1-kfwlkl], the Kd at bCAII is 60 nM and 64 nM; at hCAII, 45 nM.
